We go through 19 compounds from patent US8586591B2, “Aminopyrazine derivative and medicine” (Nippon Shinyaku Co., Ltd., priority 2009, dated 2013).

One assay concerns the target T1, JAK2 tyrosine kinase (Homo sapiens, UniProt O60674).
T1 construct: purchased Carnabioscience Co
In words: Test 1: inhibitory activity to JAK2 tyrosine kinase (ELISA). Format: biochemical. Conditions: 25 μM ATP in substrate solution, 30° C. for 1 hour, n=2. As to the method:
Test 1: Test for inhibitory activity to JAK2 and JAK3 tyrosine kinase 1. Preparation of Test Material
The test material was dissolved in dimethylsulfoxide (DMSO) to be 10 mM, and further diluted with DMSO to be 100-fold concentrations for measurement (1000, 300, 100, 30, 10, 3, 1, 0.3, 0.1, 0.03, 0.01 μM). In addition, solutions diluted with an assay buffer up to 20 times were used as solutions of the test material. As a negative control, a solution of DMSO diluted 20 times with an assay buffer was used. As the assay buffer, 15 mM Tris-Cl (pH 7.5), 0.01 v/v % Tween-20, and 1 mM dithiothreitol were used.
2. Measurement of the Activities of JAK2 and JAK3 Tyrosine Kinases
The activity was determined by ELISA. The solution of the test material (10 μl each; n=2) was placed in a streptavidine-coated 96 well plate (DELFIA Strip Plate 8×12 wells; Perkin Elmer), to which 20 μl each of substrate solution (625 nM biotin-labeled peptide substrate, 25 μM ATP, 25 mM MgCl2, 15 mM Tris-Cl (pH 7.5), 0.01 v/v % Tween-20, and 1 mM dithiothreitol), was added and stirred. Finally, 20 μl each of JAK2 tyrosine kinase (Carnabioscience Co.) (diluted to 0.75 nM with assay buffer) or JAK3 tyrosine kinase (Carnabioscience Co.) (diluted to 0.75 nM with assay buffer) was added, stirred and allowed to stand at 30° C. for 1 hour. The plate was washed 4 times with a washing buffer (50 mM Tris-Cl, pH 7.5, 150 mM NaCl, 0.02 v/v % Tween-20), and then a blocking buffer (0.1% Bovine Serum Albumin, 50 mM Tris-Cl, pH 7.5, 150 mM NaCl, 0.02 v/v % Tween-20)(150 μl each) was added for blocking at 30° C. for 30 minutes. Blocking buffer was removed, and there was added 100 μl each of horse radish peroxidase-labeled anti-phosphorylated tyrosin kinase antibody (BD Bioscience Co.) (diluted 10,000 times with blocking buffer). The plate was incubated at 30° C. for 30 minutes and then washed 4 times with a washing buffer, and 100 μl each of 3,3′,5,5′-tetramethylbenzidine (Sigma-Aldrich Co.) was added to develop color for 10 minutes. 0.1 M sulfuric acid (100 μl each) was added to stop the reaction. The absorbance was measured by means of a micro-plate reader (BIO-RAD; Model 3550) at 450 nm.
3. Analysis of the Results of the Measurement
The measured absorbance was subjected to a non-linear regression analysis by means of a SAS system (SAS Institute Inc.), and the concentration (IC50) of the test material which inhibited 50% of the activity of each tyrosine kinase was estimated.

In a further assay the target is T2, JAK3 tyrosine kinase (Homo sapiens, UniProt P52333).
T2 construct: purchased Carnabioscience Co
T2 sequence (P52333 1-1124): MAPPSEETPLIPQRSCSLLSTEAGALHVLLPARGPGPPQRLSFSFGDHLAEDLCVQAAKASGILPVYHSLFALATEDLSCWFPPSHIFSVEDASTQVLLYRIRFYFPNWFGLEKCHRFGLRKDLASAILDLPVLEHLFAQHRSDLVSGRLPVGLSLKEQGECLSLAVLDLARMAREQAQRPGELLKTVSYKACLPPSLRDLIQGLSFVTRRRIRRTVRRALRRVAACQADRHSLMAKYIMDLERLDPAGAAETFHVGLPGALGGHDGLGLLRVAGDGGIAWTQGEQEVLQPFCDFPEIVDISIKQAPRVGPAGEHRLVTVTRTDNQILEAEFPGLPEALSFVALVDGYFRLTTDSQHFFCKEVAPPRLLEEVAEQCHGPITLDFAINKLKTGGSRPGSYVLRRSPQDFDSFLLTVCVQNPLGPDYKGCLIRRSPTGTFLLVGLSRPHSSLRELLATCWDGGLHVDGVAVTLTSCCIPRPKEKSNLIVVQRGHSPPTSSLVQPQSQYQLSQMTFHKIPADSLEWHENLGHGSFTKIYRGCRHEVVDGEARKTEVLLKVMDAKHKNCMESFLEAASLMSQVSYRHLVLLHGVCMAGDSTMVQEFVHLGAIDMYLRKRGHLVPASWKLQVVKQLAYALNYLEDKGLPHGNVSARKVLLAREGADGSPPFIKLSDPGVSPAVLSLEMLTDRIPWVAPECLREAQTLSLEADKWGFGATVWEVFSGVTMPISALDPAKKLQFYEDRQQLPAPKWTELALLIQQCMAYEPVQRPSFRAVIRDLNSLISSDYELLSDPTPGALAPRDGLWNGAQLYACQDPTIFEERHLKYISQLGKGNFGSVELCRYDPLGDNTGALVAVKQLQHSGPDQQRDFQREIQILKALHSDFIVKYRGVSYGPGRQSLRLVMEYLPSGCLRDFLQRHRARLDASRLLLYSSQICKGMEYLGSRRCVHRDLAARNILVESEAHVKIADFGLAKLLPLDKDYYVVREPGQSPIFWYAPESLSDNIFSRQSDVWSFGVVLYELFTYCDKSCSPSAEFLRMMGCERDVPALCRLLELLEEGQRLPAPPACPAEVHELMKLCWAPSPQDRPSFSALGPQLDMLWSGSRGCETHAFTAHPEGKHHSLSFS
Nature of the assay: Test 1: inhibitory activity to JAK3 tyrosine kinase (ELISA). Format: biochemical. Conditions: 25 μM ATP in substrate solution, 30° C. for 1 hour, n=2. The method, then:
Test 1: Test for inhibitory activity to JAK2 and JAK3 tyrosine kinase 1. […] The test material was dissolved in dimethylsulfoxide (DMSO) to be 10 mM, and further diluted with DMSO to be 100-fold concentrations for measurement (1000, 300, 100, 30, 10, 3, 1, 0.3, 0.1, 0.03, 0.01 μM). In addition, solutions diluted with an assay buffer up to 20 times were used as solutions of the test material. As a negative control, a solution of DMSO diluted 20 times with an assay buffer was used. […] 2. Measurement of the Activities of JAK2 and JAK3 Tyrosine Kinases The activity was determined by ELISA. […] The absorbance was measured by means of a micro-plate reader (BIO-RAD; Model 3550) at 450 nm. 3. Analysis of the Results of the Measurement The measured absorbance was subjected to a non-linear regression analysis by means of a SAS system (SAS Institute Inc.), and the concentration (IC50) of the test material which inhibited 50% of the activity of each tyrosine kinase was estimated.

Structures can show the parent of a compound that is named as a salt.

T1 sequence (O60674 whole entry): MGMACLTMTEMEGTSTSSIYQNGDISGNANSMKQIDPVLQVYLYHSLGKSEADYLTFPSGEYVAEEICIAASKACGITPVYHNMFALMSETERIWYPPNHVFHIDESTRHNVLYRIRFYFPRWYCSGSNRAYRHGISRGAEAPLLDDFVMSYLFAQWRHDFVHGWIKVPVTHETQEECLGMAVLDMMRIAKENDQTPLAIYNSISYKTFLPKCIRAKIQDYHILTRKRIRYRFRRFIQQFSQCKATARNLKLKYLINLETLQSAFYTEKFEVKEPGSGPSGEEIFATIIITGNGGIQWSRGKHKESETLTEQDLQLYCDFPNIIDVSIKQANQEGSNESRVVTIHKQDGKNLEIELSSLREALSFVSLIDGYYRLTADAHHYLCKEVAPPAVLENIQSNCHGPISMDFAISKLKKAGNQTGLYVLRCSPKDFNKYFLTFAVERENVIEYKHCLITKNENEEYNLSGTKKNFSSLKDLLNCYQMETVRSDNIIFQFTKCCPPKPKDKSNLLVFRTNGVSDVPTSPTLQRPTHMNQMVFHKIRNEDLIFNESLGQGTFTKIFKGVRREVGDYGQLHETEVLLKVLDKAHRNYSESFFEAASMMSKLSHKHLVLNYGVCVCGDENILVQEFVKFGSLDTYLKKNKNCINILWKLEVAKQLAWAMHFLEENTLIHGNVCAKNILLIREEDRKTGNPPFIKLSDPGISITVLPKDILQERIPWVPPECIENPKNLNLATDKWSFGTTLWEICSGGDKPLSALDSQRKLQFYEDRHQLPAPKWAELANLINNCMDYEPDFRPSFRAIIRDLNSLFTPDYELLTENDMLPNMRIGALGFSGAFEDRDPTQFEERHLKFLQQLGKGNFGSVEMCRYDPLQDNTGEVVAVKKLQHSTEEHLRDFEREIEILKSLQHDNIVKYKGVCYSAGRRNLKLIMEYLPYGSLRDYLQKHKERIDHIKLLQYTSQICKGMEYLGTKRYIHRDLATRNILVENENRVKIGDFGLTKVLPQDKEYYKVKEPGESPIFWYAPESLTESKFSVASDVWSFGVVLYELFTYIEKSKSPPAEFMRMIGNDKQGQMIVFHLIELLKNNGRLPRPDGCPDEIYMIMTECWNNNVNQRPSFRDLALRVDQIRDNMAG

Turning to “4-{2-[(1S)-1-(4-Fluorophenyl)ethylamino]-6-(pyrazin-2-ylamino)pyrimidin-4-yl}-1λ^6,4-thiomorpholin-1,1-dione [Example 226]”, the IC50 on JAK2 tyrosine kinase came to 1.1 nM; on JAK3 tyrosine kinase it was 24 nM.
Take `C[C@H](Nc1nc(Nc2cnccn2)cc(N2CC(F)(F)C2)n1)c1ccc(F)cc1` [Example 3, (S)-6-(3,3-Difluoroazetidin-1-yl)-N^2-[1-(4-fluorophenyl)ethyl]-N^4-(pyrazin-2-yl)pyrimidine-2,4-diamine hydrochloride]: the IC50 against JAK2 tyrosine kinase stood at 1.2 nM; against JAK3 tyrosine kinase, 130 nM.
As to `C[C@H](Nc1cc(-c2cccnc2)cc(Nc2cnccn2)n1)c1ccc(F)cc1` [Example 5, (S)—N^2′-[1-(4-Fluorophenyl)ethyl]-N^6′-(pyrazin-2-yl)-3,4′-bipyridine-2′,6′-diamine hydrochloride], the figures for the IC50 at JAK2 tyrosine kinase and against JAK3 tyrosine kinase were 0.62 nM and 62 nM, respectively.
For `COc1ccc(-c2cc(Nc3cnccn3)nc(N[C@@H](C)c3ccc(F)cc3)c2)cn1` [Example 6, (S)—N^2′-[1-(4-Fluorophenyl)ethyl]-6-methoxy-N^6′-(pyrazin-2-yl)-3,4′-bipyridine-2′,6′-diamine], the IC50 against JAK2 tyrosine kinase came to 5.7 nM; against JAK3 tyrosine kinase, 500 nM.
As for `C[C@H](Nc1cc(-c2cnco2)cc(Nc2cnccn2)n1)c1ccc(F)cc1` [Example 8, (S)—N^2-[1-(4-Fluorophenyl)ethyl]-4-(oxazol-5-yl)-N^6-(pyrazin-2-yl)pyridine-2,6-diamine], the IC50 at JAK2 tyrosine kinase came to 1.1 nM; against JAK3 tyrosine kinase, 82 nM.
For the compound `C[C@H](Nc1cc(C(=O)N2CCCC2)cc(Nc2cnccn2)n1)c1ccc(F)cc1` [Example 154, (S)-{2-[1-(4-Fluorophenyl)ethylamino]-6-(pyrazin-2-ylamino)pyridin-4-yl}(pyrrolidin-1-yl)methanone], the IC50 against JAK3 tyrosine kinase worked out at 340 nM.
In turn, `CC(C)NC(=O)c1cc(Nc2cnccn2)nc(N[C@@H](C)c2ccc(F)cc2)c1` [Example 155, (S)-2-[1-(4-Fluorophenyl)ethylamino]-N-isopropyl-6-(pyrazin-2-ylamino)isonicotinamide] gave an IC50 on JAK3 tyrosine kinase of 390 nM.
For the compound `C[C@H](Nc1nc(Nc2cnccn2)cc(N2CC[C@H]2C(N)=O)n1)c1ccc(F)cc1` [Example 156, (S)-1-{2-[(S)-1-(4-Fluorophenyl)ethylamino]-6-(pyrazin-2-ylamino)pyrimidin-4-yl}azetidine-2-carboxamide], the midpoint of inhibition at JAK3 tyrosine kinase, the IC50, lay at 580 nM. This IC50 and that of the compound before are within 1.5-fold of each other.
The compound `C[C@H](Nc1cc(OC2CCOCC2)cc(Nc2cnccn2)n1)c1ccc(F)cc1` [Example 157, (S)—N^2-[1-(4-Fluorophenyl)ethyl]-N^6-(pyrazin-2-yl)-4-(tetrahydro-2H-pyran-4-yloxy)pyridine-2,6-diamine hydrochloride] showed an IC50 against JAK3 tyrosine kinase of 150 nM.
For `C[C@H](Nc1nc(Nc2cnccn2)cc(N2CC(C(N)=O)C2)n1)c1ccc(F)cc1` [Example 158, (S)-1-{2-[1-(4-Fluorophenyl)ethylamino]-6-(pyrazin-2-ylamino)pyrimidin-4-yl}azetidine-3-carboxamide], the IC50 on JAK3 tyrosine kinase amounted to 39 nM. Against the preceding compound, the IC50 is about 3.8-fold lower.
Take `C[C@H](Nc1cc(C(=O)NCCO)cc(Nc2cnccn2)n1)c1ccc(F)cc1` [Example 159, (S)-2-[1-(4-Fluorophenyl)ethylamino]-N-(2-hydroxyethyl)-6-(pyrazin-2-ylamino)isonicotinamide]: 170 nM corresponded to half-maximal inhibition against JAK3 tyrosine kinase (IC50).
For `CNC(=O)c1cc(Nc2cnccn2)nc(N[C@@H](C)c2ccc(F)cc2)c1` [Example 160, (S)-2-[1-(4-Fluorophenyl)ethylamino]-N-methyl-6-(pyrazin-2-ylamino)isonicotinamide], the IC50 at JAK3 tyrosine kinase was determined as 100 nM.
Consider `C[C@H](Nc1cc(C(=O)N2CCOCC2)cc(Nc2cnccn2)n1)c1ccc(F)cc1` [Example 161, (S)-{2-[1-(4-Fluorophenyl)ethylamino]-6-(pyrazin-2-ylamino)pyridin-4-yl}(morpholino)methanone], for which the IC50 against JAK3 tyrosine kinase was determined as 230 nM.
On to `C[C@H](Nc1cc(C(=O)NCc2ccccc2)cc(Nc2cnccn2)n1)c1ccc(F)cc1` [Example 162, (S)—N-Benzyl-2-[1-(4-fluorophenyl)ethylamino]-6-(pyrazin-2-ylamino)isonicotinamide hydrochloride], for which the IC50 against JAK3 tyrosine kinase is 370 nM. Compared with the last compound, the IC50 is about 1.6-fold higher.
`C[C@H](Nc1cc(C(=O)NC2CC2)cc(Nc2cnccn2)n1)c1ccc(F)cc1` [Example 163, (S)—N-Cyclopropyl-2-[1-(4-fluorophenyl)ethylamino]-6-(pyrazin-2-ylamino)isonicotinamide] registered an IC50 at JAK3 tyrosine kinase of 170 nM.
Consider `C[C@H](Nc1cc(C(=O)N2CCN(C)CC2)cc(Nc2cnccn2)n1)c1ccc(F)cc1` [Example 164, (S)-{2-[1-(4-Fluorophenyl)ethylamino]-6-(pyrazin-2-ylamino)pyridin-4-yl}(4-methylpiperazin-1-yl)methanone hydrochloride], for which the midpoint of inhibition against JAK3 tyrosine kinase, the IC50, lay at 470 nM.
Still for that read-out and setting: the same measure for `COCCNC(=O)c1cc(Nc2cnccn2)nc(N[C@@H](C)c2ccc(F)cc2)c1` [Example 165, (S)-2-[1-(4-Fluorophenyl)ethylamino]-N-(2-methoxyethyl)-6-(pyrazin-2-ylamino)isonicotinamide]: 360 nM.
Take `C[C@H](Nc1nc(Nc2cnccn2)cc(N2CC(C(=O)N(C)C)C2)n1)c1ccc(F)cc1` [Example 176, (S)-1-{2-[1-(4-Fluorophenyl)ethylamino]-6-(pyrazin-2-ylamino)pyrimidin-4-yl}-N,N-dimethylazetidin-3-carboxamide]: the midpoint of inhibition against JAK2 tyrosine kinase, the IC50, lay at 0.96 nM.
Same read-out and setting: then `CC(C)C1(O)CN(c2cc(Nc3cnccn3)nc(N[C@@H](C)c3ccc(F)cc3)n2)C1` [Example 201, (S)-1-{2-[1-(4-Fluorophenyl)ethylamino]-6-(pyrazin-2-ylamino)pyrimidin-4-yl}-3-isopropylazetidin-3-ol hydrochloride], with 0.41 nM.
